Assay results as given in patent US8039532B2, “Heterocyclic compound, ultraviolet absorbent and composition containing the same” (Fujifilm Corporation, priority 2007, dated 2011).

Assays:
Format in all cases: physicochemical
[1] = Light fastness of ethyl acetate solutions under xenon lamp irradiation (Example 39); settings: ethyl acetate solution, xenon lamp with UV filter removed, 170,000 lux, one week; transmittance at maximum absorption wavelength
Experimental: Was dissolved 5 mg of the exemplified compound (1) in 100 mL of ethyl acetate and then the resulting solution was diluted with ethyl acetate so that absorbance became the range of from 0.95 to 1.05. Similarly, sample solutions of Exemplified Compounds (2), (11), (12), (24), (81) and (82) and comparative compounds A and B, respectively, were prepared. The absorbance of each sample solution was determined in a 1 cm quartz cell by using Spectrophotometer UV-3600 (product name) manufactured by Shimadzu Corporation. The cell containing the sample solution was photoirradiated by a xenon lamp with its UV filter removed at an illuminance of 170,000 lux, and the amount of each ultraviolet absorbent remaining after irradiation for one week was determined. The residual amount was calculated according to the following Formula: Residual amount (%)=100×(100−Transmittance after irradiation)/(100−Transmittance before irradiation)
The transmittance is a value determined at the maximum absorption wavelength of each compound.

[2] = UV spectrum of sample solutions in ethyl acetate (Example 38); settings: ethyl acetate solution, 1 cm quartz cell
Experimental: The absorption maximum wavelength and the half width specified in the present invention can be determined easily by a skilled person in the art. The measuring methods are described, for example, in Chemical Society of Japan Ed., “Experimental Chemistry Lecture, Chapter 7, Spectroscopy II”, 4th Ed., (Maruzen, 1992), p. 180 to 186. Specifically, they are determined by dissolving a sample in a suitable solvent and measuring the spectrum in a spectrophotometer by using two quartz or glass cells for the sample and control. For example, the solvent for use is required to be capable of dissolving the sample, have no absorption in the measurement wavelength range, have smaller interaction with the solute molecule, and have relatively low volatility. Any solvent may be used, as long as it satisfies the conditions above. In the present invention, the measurement is made by using ethyl acetate (EtOAc) as the solvent.
The absorption maximum wavelength and the half width of the dyes in the present invention are determined by preparing a solution in ethyl acetate as the solvent at a concentration of approximately 5×10^−5 mol·dm^−3 and by measurement while using a quartz cell having an optical path length of 10 mm.
The spectral half width is described, for example, in Chemical Society of Japan Ed., “Experimental Chemistry Lecture, Chapter 3 Basic Operation III”, 4th Ed., (Maruzen, 1991), p. 154. The half width is described in the literature above by using wave number as abscissa, but the half width is plotted against wavelength in the present invention and thus, the unit of the half value width is nm. Specifically, it is defined as the width of the absorption band at an absorbance of ½ of that at the absorption maximum wavelength and used as an indicator of the absorption spectral shape.
One mg of the Exemplified Compound (1) was dissolved in 100 ml of ethyl acetate, to give a sample solution. Similarly, sample solutions of Exemplified Compounds (2), (11), (12), (24), (81), (82), (87) and (88), respectively, were prepared. In addition, two mg of the comparative compound 1 was dissolved in 100 ml of ethyl acetate, to give a sample solution. Similarly, sample solutions of the comparative compounds 2 (the exemplified compound VIII described in JP-B-49-11155), 11 and 12, respectively, were also prepared. The UV spectrum of each sample solution was determined in a 1 cm quartz cell by using Spectrophotometer UV-3600 (product name) manufactured by Shimadzu Corporation. Based on the thus-obtained spectrum chart, were calculated the maximum absorption wavelength, the molar extinction coefficient (ε) at the maximum absorption wavelength and the half width (a width of absorption band corresponding to a half extinction at the maximum absorption wavelength).

[3] = Degree of coloring of UV agent-containing polyethylene terephthalate films (Example 43); design: key to Colored (visual): ∘: Not colored; Δ: Slightly colored; x: Distinctly colored; settings: PET film 50 μm; for absorbance at 420 nm / absorbance at 440 nm / absorbance at 460 nm: quantity giving 1% at 400 nm; for Colored (visual): visual examination; for absorbance at 400 nm: quantity adjusted so that value at 400 nm became 1%
Experimental: To 15 g of polyethylene terephthalate, the exemplified compounds (81) and (82) were added, respectively, in a quantity such that absorbance at 400 nm became 1% at the time of forming a film with a thickness of 50 μm. After fusion mixing at 265° C., UV agent-containing polymer films (401) and (402) were prepared by cooling and stretching. Further, UV agent-containing polymer films (403) and (404) were prepared by mixing and thin film-making in the same manner as the above films, except that a comparative compound Za and the abovementioned comparative compound 12 were used in place of the exemplified compounds.
A degree of coloring in each of the prepared samples was evaluated by measuring absorbance of the sample at 420 nm 440 nm and 460 nm, and also by examining them visually.

Compound: COc1ccc(C(=O)CC(=O)c2ccc(C(C)(C)C)cc2)cc1 [Comparative compound B]
- Residual amount (%) [1]: 38%

Compound: CCCCC(CC)C(=O)Oc1ccc(OC(=O)C(CC)CCCC)c2c1SC(=C(C#N)C#N)S2 (centres unmarked) [Comparative compound 1]
- Half width (nm) [2]: 45 nm
- ε, molar extinction coefficient at the maximum absorption wavelength [2]: 24000
- λmax (nm), maximum absorption wavelength [2]: 369 nm

Compound: CCCCC(CC)COc1ccc(OCC(CC)CCCC)c2c1SC(=C(C#N)C(=O)OCC)S2 (centres unmarked) [Comparative compound 12]
- Half width (nm) [2]: 39 nm
- ε, molar extinction coefficient at the maximum absorption wavelength [2]: 28000
- λmax (nm), maximum absorption wavelength [2]: 360 nm
- coloring of the film (in words) [3]: coloring was also observed
- absorbance at 420 nm [3]: 65%
- absorbance at 440 nm [3]: 72%
- absorbance at 460 nm [3]: 78%
- Colored (visual) [3]: Δ to x
- absorbance at 400 nm [3]: 1%

Compound: COc1ccc(C(=O)c2ccc(OC)cc2O)c(O)c1 [Comparative compound A]
- Residual amount (%) [1]: 76%

Compound: CCCCCCCCCCCCOc1ccc(OCCCCCCCCCCCC)c2c1SC(=C(C#N)C#N)S2 [Comparative compound 2]
- Half width (nm) [2]: 46 nm
- ε, molar extinction coefficient at the maximum absorption wavelength [2]: 23000
- λmax (nm), maximum absorption wavelength [2]: 363 nm

Compound: CC(C)(C)CC(C)(C)c1cc(Cc2cc(C(C)(C)CC(C)(C)C)cc(-n3nc4ccccc4n3)c2O)c(O)c(-n2nc3ccccc3n2)c1 [Za]
- coloring of the film (in words) [3]: more colored yellow
- absorbance at 420 nm [3]: 45%
- absorbance at 440 nm [3]: 65%
- absorbance at 460 nm [3]: 85%
- Colored (visual) [3]: x
- absorbance at 400 nm [3]: 1%
